Key:
CDK2/Cyclin E1 = CDK2/Cyclin E1 (Homo sapiens, UniProt P24941); test: CDK2/Cyclin E1 Biochemical Assay (TR-FRET), 0.060 mM ATP; settings: 0.15 μM Rb (Ser780)-biotin substrate, pH7.0, 60 min preincubation, 120 min reaction, room temperature
Procedure, shortened: (§1)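 IC50 was from a four-parameter logistic fit of the 665/620 nm TR-FRET ratio (Eu anti-pRb Ser780 mAb, streptavidin-XL665). Compound (0-10 μM) was preincubated 60 min with enzyme, then reacted 120 min at room temperature with 0.15 μM biotinylated Rb (Ser780) peptide. ATP was 0.015 mM for CDK1/Cyclin B1 and 0.060 mM for CDK2/Cyclin E1; buffer was HEPES pH7.0.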

CDK1/Cyclin B1 = CDK1/Cyclin B1 (Homo sapiens, UniProt P06493); test: CDK1/Cyclin B1 Biochemical Assay (TR-FRET), 0.015 mM ATP; settings: 0.15 μM Rb (Ser780)-biotin substrate, pH7.0, 60 min preincubation, 120 min reaction, room temperature
Procedure, shortened: as §1

Sequence of CDK1/Cyclin B1 (P06493 whole entry): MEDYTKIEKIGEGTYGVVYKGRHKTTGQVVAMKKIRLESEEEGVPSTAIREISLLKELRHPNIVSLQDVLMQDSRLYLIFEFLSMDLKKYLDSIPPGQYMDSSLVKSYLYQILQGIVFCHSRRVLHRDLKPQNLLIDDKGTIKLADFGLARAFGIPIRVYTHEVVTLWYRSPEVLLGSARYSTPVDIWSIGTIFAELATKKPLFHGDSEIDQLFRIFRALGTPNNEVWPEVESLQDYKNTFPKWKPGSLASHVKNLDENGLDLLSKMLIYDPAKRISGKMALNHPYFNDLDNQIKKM
Sequence of CDK1/Cyclin B1 (P14635 whole entry partner): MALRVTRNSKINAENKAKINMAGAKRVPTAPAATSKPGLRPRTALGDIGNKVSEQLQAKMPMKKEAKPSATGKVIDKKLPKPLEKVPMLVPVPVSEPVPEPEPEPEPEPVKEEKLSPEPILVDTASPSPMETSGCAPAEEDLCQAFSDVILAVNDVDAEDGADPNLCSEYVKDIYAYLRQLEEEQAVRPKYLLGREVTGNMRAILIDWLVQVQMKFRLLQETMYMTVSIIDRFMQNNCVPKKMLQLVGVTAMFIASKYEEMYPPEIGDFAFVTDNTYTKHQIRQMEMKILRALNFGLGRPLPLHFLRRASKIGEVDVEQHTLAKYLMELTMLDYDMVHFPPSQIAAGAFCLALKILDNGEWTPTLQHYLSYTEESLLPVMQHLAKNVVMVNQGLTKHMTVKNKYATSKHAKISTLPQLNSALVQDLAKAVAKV

SMILES	IC50 (CDK2/Cyclin E1) [nM]	IC50 (CDK1/Cyclin B1) [nM]
CC[C@H](C)NC(=O)O[C@H]1CC[C@@H](c2cc(Nc3ccc4c(c3)CCS(=O)(=O)N4)n[nH]2)C1 (relative stereo) [Example 248, cis-3-(3-((2,2-dioxido-3,4-dihydro-1H-benzo[c][1,2]thiazin-6-yl)amino)-1H-pyrazol-5-yl)cyclopentyl((S)-sec-butyl)carbamate]	2.6	49
O=C(O[C@H]1CC[C@@H](c2cc(Nc3ccc4c(c3F)CS(=O)(=O)N4)n[nH]2)C1)N1CCOCC1 (relative stereo) [Example 415, cis-3-(3-((4-fluoro-2,2-dioxido-1,3-dihydrobenzo[c]isothiazol-5-yl)amino)-1H-pyrazol-5-yl)cyclopentyl morpholine-4-carboxylate]	26	700
CC1(NC(=O)O[C@@H]2CC[C@H](c3cc(Nc4ccc5c(c4F)CS(=O)(=O)N5)n[nH]3)C2)CC1 (single isomer, unassigned) [Example 388a]	1.2	36
CC1NS(=O)(=O)c2ccc(Nc3cc([C@@H]4CC[C@H](OC(=O)NC5(C)CC5)C4)[nH]n3)c(F)c21 (single isomer, unassigned) [Example 52b, cis-3-(3-((4-fluoro-3-methyl-1,1-dioxido-2,3-dihydrobenzo[d]isothiazol-5-yl)amino)-1H-pyrazol-5-yl)cyclopentyl(1-methylcyclopropyl)carbamate]	2.7	153
COCC(C)(C)NC(=O)O[C@H]1CC[C@@H](c2cc(Nc3ccc4c(c3)CS(=O)(=O)N4)n[nH]2)C1 (relative stereo) [Example 370, cis-3-(3-((2,2-dioxido-1,3-dihydrobenzo[c]isothiazol-5-yl)amino)-1H-pyrazol-5-yl)cyclopentyl(1-methoxy-2-methylpropan-2-yl)carbamate]	1.1	9.7
O=C(NC1CCC1)O[C@H]1CC[C@@H](c2cc(Nc3ccc4c(c3F)CS(=O)(=O)N4)n[nH]2)C1 (single isomer, unassigned) [Example 399b]	3.8	90
CC(C)NC(=O)O[C@H]1CC[C@@H](c2cc(Nc3cc(Cl)c4c(c3)S(=O)(=O)NC4)n[nH]2)C1 (relative stereo) [Example 184, cis-3-(3-((4-chloro-1,1-dioxido-2,3-dihydrobenzo[d]isothiazol-6-yl)amino)-1H-pyrazol-5-yl)cyclopentyl isopropylcarbamate]	1.5	4.1
O=C(O[C@H]1CC[C@@H](c2cc(Nc3ccc4c(c3)CNS4(=O)=O)n[nH]2)C1)N1CCCC1 (relative stereo) [Example 174, cis-3-(3-((1,1-dioxido-2,3-dihydrobenzo[d]isothiazol-5-yl)amino)-1H-pyrazol-5-yl)cyclopentyl pyrrolidine-1-carboxylate]	6.5	136
CN1c2ccc(Nc3cc([C@@H]4CC[C@H](OC(=O)NC5(C)COC5)C4)[nH]n3)cc2CS1(=O)=O (relative stereo) [Example 234, cis-3-(3-((1-methyl-2,2-dioxido-1,3-dihydrobenzo[c]isothiazol-5-yl)amino)-1H-pyrazol-5-yl)cyclopentyl(3-methyloxetan-3-yl)carbamate]	4.2	67
COc1c(Nc2cc([C@@H]3CC[C@H](OC(=O)NC(C)C)C3)[nH]n2)ccc2c1C(C)(C)NS2(=O)=O (relative stereo) [Example 24, cis-3-(3-((4-methoxy-3,3-dimethyl-1,1-dioxido-2,3-dihydrobenzo[d]isothiazol-5-yl)amino)-1H-pyrazol-5-yl)cyclopentyl isopropylcarbamate]	887	9960

The remaining lines, values ahead:

IC50 (CDK2/Cyclin E1) [nM]	IC50 (CDK1/Cyclin B1) [nM]	SMILES
1.3	120	CC[C@H](C)NC(=O)O[C@H]1CC[C@@H](c2cc(Nc3ccc4c(c3F)CN(C3COC3)S4(=O)=O)n[nH]2)C1 (single isomer, unassigned) [Example 134b]
5.2	440	CC(C)NC(=O)O[C@H]1CC[C@@H](c2cc(Nc3ccc4c(c3F)CN(CC(O)CO)S4(=O)=O)n[nH]2)C1 (relative stereo) [Example 71, cis-3-(3-((2-(2,3-dihydroxypropyl)-4-fluoro-1,1-dioxido-2,3-dihydrobenzo[d]isothiazol-5-yl)amino)-1H-pyrazol-5-yl)cyclopentyl isopropylcarbamate]
9.3	359	CC(C)NC(=O)O[C@H]1CC[C@@H](c2cc(Nc3cc4c(cc3F)S(=O)(=O)NC4)n[nH]2)C1 (single isomer, unassigned) [Example 12b, cis-3-(3-((6-fluoro-1,1-dioxido-2,3-dihydrobenzo[d]isothiazol-5-yl)amino)-1H-pyrazol-5-yl)cyclopentyl isopropylcarbamate]
4.3	364	CC1(NC(=O)O[C@H]2CC[C@@H](c3cc(Nc4ccc5c(c4F)CNS5(=O)=O)n[nH]3)C2)COC1 (single isomer, unassigned) [Example 164a, cis-3-(3-((4-fluoro-1,1-dioxido-2,3-dihydrobenzo[d]isothiazol-5-yl)amino)-1H-pyrazol-5-yl)cyclopentyl(3-methyloxetan-3-yl)carbamate]
4.7	652	[2H]C([2H])([2H])N1Cc2c(ccc(Nc3cc([C@@H]4CC[C@H](OC(=O)NC(C)C)C4)[nH]n3)c2F)S1(=O)=O (single isomer, unassigned) [Example 129a, cis-3-(3-((4-fluoro-2-(methyl-d3)-1,1-dioxido-2,3-dihydrobenzo[d]isothiazol-5-yl)amino)-1H-pyrazol-5-yl)cyclopentyl isopropylcarbamate]
5.2	613	CC[C@H](C)NC(=O)O[C@H]1CC[C@@H](c2cc(Nc3ccc4c(c3F)CN(C)S4(=O)=O)n[nH]2)C1 (single isomer, unassigned) [Example 123a]
8.7	447	CC(C)NC(=O)O[C@H]1CC[C@@H](c2cc(Nc3ccc4c(c3F)C(C)NS4(=O)=O)n[nH]2)C1 (single isomer, unassigned) [Example 51d, cis-3-(3-((4-fluoro-3-methyl-1,1-dioxido-2,3-dihydrobenzo[d]isothiazol-5-yl)amino)-1H-pyrazol-5-yl)cyclopentyl isopropylcarbamate]
3.1	345	CCCNC(=O)O[C@H]1CC[C@@H](c2cc(Nc3ccc4c(c3F)CN(C3CC3)S4(=O)=O)n[nH]2)C1 (racemic) [Example 118, cis-3-(3-((2-cyclopropyl-4-fluoro-1,1-dioxido-2,3-dihydrobenzo[d]isothiazol-5-yl)amino)-1H-pyrazol-5-yl)cyclopentyl propylcarbamate]
8.3	638	CC(C)NC(=O)O[C@H]1CC[C@@H](c2cc(Nc3ccc4c(c3F)CN(C3CCNC3=O)S4(=O)=O)n[nH]2)C1 (relative stereo) [Example 79, cis-3-(3-((4-fluoro-1,1-dioxido-2-(2-oxopyrrolidin-3-yl)-2,3-dihydrobenzo[d]isothiazol-5-yl)amino)-1H-pyrazol-5-yl)cyclopentyl isopropylcarbamate]

From US20260297080A1, “BICYCLIC COMPOUNDS AS CDK INHIBITORS” (BeOne Medicines I GmbH, priority 2022, published 2026)
